Reference: US4267176A, “Amino or acylamino-substituted pyrimidinyl cephalosporanic acid derivatives and pharmaceutical compositions thereof” (Fujisawa Pharmaceutical Co., Ltd., priority 1977, dated 1981)
In brackets after ≈: the same amount, converted by molar mass.

Tests used:
[1] = test system: Proteus vulgaris IAM 1025; assay: In vitro antibacterial activity, two-fold agar-plate dilution method (MIC), Proteus vulgaris; type: cell-based; conditions: IAM1025, heart infusion agar, 37° C. for 20 hours, approximately 10^6 cells per ml, read-out: MIC (minimal inhibitory concentration)
Experimental: (§1) In vitro antibacterial activity was determined by the two-fold agar-plate dilution method as described below. One loopful of an overnight culture of each test strain in Trypticase-soy broth (approximately 10^6 […] cells per ml.) was streaked on heart infusion agar (HI-agar) containing graded concentrations of antibiotics, and the minimal inhibitory concentration (MIC) was expressed in […] of μg/ml after incubation at 37° C. for 20 hours.

[2] = test system: Pseudomonas aeruginosa NCTC-10490; assay: In vitro antibacterial activity, two-fold agar-plate dilution method (MIC), Pseudomonas aeruginosa; type: cell-based; conditions: NCTC10490, heart infusion agar, 37° C. for 20 hours, approximately 10^6 cells per ml, read-out: MIC (minimal inhibitory concentration)
Experimental: as §1

| Compound | MIC [1] | MIC [2] |
| --- | --- | --- |
| CCO/N=C(\C(=O)NC1C(=O)N2C(C(=O)O)=C(CSc3nncs3)CSC12)c1nccc(N)n1 (stereo not drawn) [compound 1, 7-[2-(4-Aminopyrimidin-2-yl)-2-ethoxyiminoacetamido]-3-(1,3,4-thiadiazol-2-ylthiomethyl)-3-cephem-4-carboxylic acid (syn isomer)] | < 0.025 µg/mL | < 1.56 µg/mL |
| C=CCn1nnnc1SCC1=C(C(=O)O)N2C(=O)C(NC(=O)/C(=N\OC)c3nccc(N)n3)C2SC1 (stereo not drawn) [compound 2, 7-[2-(4-Aminopyrimidin-2-yl)-2-methoxyiminoacetamido]-3-[(1-allyl-1H-tetrazol-5-yl)thiomethyl]-3-cephem-4-carboxylic acid (syn isomer)] | < 0.025 µg/mL | 6.25 µg/mL (≈ 11.7 µM) |
| C=CCO/N=C(\C(=O)NC1C(=O)N2C(C(=O)O)=C(CSc3nncs3)CSC12)c1nccc(N)n1 (stereo not drawn) [compound 3, 7-[2-Allyloxyimino-2-(4-aminopyrimidin-2-yl)acetamido]-3-(1,3,4-thiadiazol-2-ylthiomethyl)-3-cephem-4-carboxylic acid (syn isomer)] | 0.05 µg/mL (≈ 0.0935 µM) | < 1.56 µg/mL |
| CCCO/N=C(\C(=O)NC1C(=O)N2C(C(=O)O)=C(CSc3nncs3)CSC12)c1nccc(N)n1 (stereo not drawn) [compound 4, 7-[2-(4-Aminopyrimidin-2-yl)-2-propoxyiminoacetamido]-3-(1,3,4-thiadiazol-2-ylthiomethyl)-3-cephem-4-carboxylic acid (syn isomer)] | < 0.025 µg/mL | < 1.56 µg/mL |
| Nc1cccc(/C(=N/OCC(F)(F)F)C(=O)NC2C(=O)N3C(C(=O)O)=C(CSc4nnnn4CC(=O)O)CSC23)n1 (stereo not drawn) [compound 5, 7-[2-(6-Aminopyridin-2-yl)-2-(2,2,2-trifluoroethoxyimino)acetamido]-3-[(1-carboxymethyl-1H-tetrazol-5-yl)thiomethyl]-3-cephem-4-carboxylic acid (syn isomer)] | 0.025 µg/mL (≈ 0.0405 µM) | < 1.56 µg/mL |
| CO/N=C(\C(=O)NC1C(=O)N2C(C(=O)O)=C(CSc3nnnn3C)CSC12)c1cccc(N)n1 (stereo not drawn) [compound 6, 7-[2-(6-aminopyridin-2-yl)-2-methoxyiminoacetamido]-3-(1-methyl-1H-tetrazol-5-yl)thiomethyl-3-cephem-4-carboxylic acid (syn isomer)] | ≤ 0.025 µg/mL | ≤ 1.56 µg/mL |
| CON=C(C(=O)NC1C(=O)N2C(C(=O)O)=CCS[C@H]12)c1cccc(N)n1 (stereo partly shown) [compound 7, 7-[2-(6-aminopyridin-2-yl)-2-methoxyiminoacetamido]-3-cephem-4-carboxylic acid] | ≤ 0.025 µg/mL | 6.25 µg/mL (≈ 16.6 µM) |
| CO/N=C(\C(=O)NC1C(=O)N2C(C(=O)O)=C(COC(N)=O)CSC12)c1cccc(N)n1 (stereo not drawn) [compound 8, 7-[2-(6-aminopyridin-2-yl)-2-methoxyiminoacetamido]-3-carbamoyloxymethyl-3-cephem-4-carboxylic acid (syn isomer)] | 0.05 µg/mL (≈ 0.111 µM) | 3.13 µg/mL (≈ 6.95 µM) |
| CO/N=C(\C(=O)NC1C(=O)N2C(C(=O)O)=C(COC(C)=O)CSC12)c1cccc(N)n1 (stereo not drawn) [compound 9, 7-[2-(6-aminopyridin-2-yl)-2-methoxyiminoacetamido]cephalosporanic acid (syn isomer)] | ≤ 0.025 µg/mL | ≤ 1.56 µg/mL |
| CON=C(C(=O)NC1C(=O)N2C(C(=O)O)=C(CSc3nnnn3C)CS[C@H]12)c1ccnc(N)n1 (stereo partly shown) [compound 10, 7-[2-(2-aminopyrimidin-4-yl)-2-methoxyiminoacetamido]-3-(1-methyl-1H-tetrazol-5-yl)thiomethyl-3-cephem-4-carboxylic acid] | 0.2 µg/mL (≈ 0.395 µM) | 6.25 µg/mL (≈ 12.3 µM) |
| CO/N=C(\C(=O)NC1C(=O)N2C(C(=O)O)=C(CSc3nnnn3C)CSC12)c1nccc(N)n1 (stereo not drawn) [compound 11, 7-[2-(4-aminopyrimidin-2-yl)-2-methoxyiminoacetamido]-3-(1-methyl-1H-tetrazol-5-ylthiomethyl)-3-cephem-4-carboxylic acid (syn isomer)] | ≤ 0.025 µg/mL | < 1.56 µg/mL |
| C=CCO/N=C(\C(=O)NC1C(=O)N2C(C(=O)O)=C(CSc3nnnn3C)CSC12)c1cccc(N)n1 (stereo not drawn) [compound 12, 7-[2-allyloxyimino-2-(6-aminopyridin-2-yl)acetamido]-3-(1-methyl-1H-tetrazol-5-ylthiomethyl)-3-cephem-4-carboxylic acid (syn isomer)] | 0.05 µg/mL (≈ 0.0941 µM) | ≤ 1.56 µg/mL |
| C#CCO/N=C(\C(=O)NC1C(=O)N2C(C(=O)O)=C(CSc3nnnn3C)CSC12)c1cccc(N)n1 (stereo not drawn) [compound 13, 7-[2-(6-aminopyridin-2-yl)-2-propargyloxyiminoacetamido]-3-(1-methyl-1H-tetrazol-5-ylthiomethyl)-3-cephem-4-carboxylic acid (syn isomer)] | 0.05 µg/mL (≈ 0.0944 µM) | ≤ 1.56 µg/mL |
| CCO/N=C(\C(=O)NC1C(=O)N2C(C(=O)O)=CC(C)SC12)c1cccc(N)n1 (stereo not drawn) [compound 14, 7-[2-(6-aminopyridin-2-yl)-2-ethoxyiminoacetamido]-2-methyl-3-cephem-4-carboxylic acid (syn isomer)] | 0.05 µg/mL (≈ 0.123 µM) | < 1.56 µg/mL |
